Data reported in the NIST ThermoML archive (doi:10.1021/je500594z).

What was measured:
[1] = 101 kPa, Liquid; for viscosity: Falling or rolling sphere viscometry; for speed of sound: Sing-around technique in a fixed-path interferometer; for mass density: Vibrating tube method
[2] = xn = mol fraction of the nth substance listed; settings: 101 kPa, Liquid, x2 = 0; for viscosity: Falling or rolling sphere viscometry; for speed of sound: Sing-around technique in a fixed-path interferometer; for mass density: Vibrating tube method

CCCCCC[n+]1ccn(C)c1.O=S(=O)([N-]S(=O)(=O)C(F)(F)F)C(F)(F)F
[1]
Settings	mass density [kg/m3]	speed of sound [m/s]	viscosity [mPa·s]
278.15 K	1390.3	1274.6	211.31
298.15 K	1371.64	1226.8	70.46
318.15 K	1353.31	1182	30.22
338.15 K	1335.25	1139.3	–

CCCC[n+]1ccn(C)c1.O=S(=O)([N-]S(=O)(=O)C(F)(F)F)C(F)(F)F
[1]
Settings	mass density [kg/m3]	speed of sound [m/s]	viscosity [mPa·s]
278.15 K	1453.69	1273.8	139.82
298.15 K	1434.23	1227.5	51.22
318.15 K	1415.13	1184	24.36
338.15 K	1396.35	1142.7	13.94

CCn1cc[n+](C)c1.O=S(=O)([N-]S(=O)(=O)C(F)(F)F)C(F)(F)F
[1]
Settings	mass density [kg/m3]	speed of sound [m/s]	viscosity [mPa·s]
278.15 K	1538.23	1284.9	75.08
298.15 K	1517.76	1240.1	32.02
318.15 K	1497.65	1196.6	17.32
338.15 K	1477.86	1155.8	10.82

CCO [ethanol]
[1]
Settings	mass density [kg/m3]	speed of sound [m/s]	viscosity [mPa·s]
278.15 K	802.39	1212.9	1.59
298.15 K	785.32	1143.1	1.08
318.15 K	767.84	1075.7	0.77
338.15 K	749.54	1009.4	0.56

CCO [ethanol] + CCCCCC[n+]1ccn(C)c1.O=S(=O)([N-]S(=O)(=O)C(F)(F)F)C(F)(F)F
[2]
Settings	mass density [kg/m3]	speed of sound [m/s]	viscosity [mPa·s]
278.15 K	802.39	1212.9	1.59
298.15 K	785.32	1143.1	1.08
318.15 K	767.84	1075.7	0.77
338.15 K	749.54	1009.4	–

CCO [ethanol] + CCCC[n+]1ccn(C)c1.O=S(=O)([N-]S(=O)(=O)C(F)(F)F)C(F)(F)F
[2]
Settings	mass density [kg/m3]	speed of sound [m/s]	viscosity [mPa·s]
278.15 K	802.39	1212.9	1.59
298.15 K	785.32	1143.1	1.08
318.15 K	767.84	1075.7	0.77
338.15 K	749.54	1009.4	0.56

CCO [ethanol] + CCn1cc[n+](C)c1.O=S(=O)([N-]S(=O)(=O)C(F)(F)F)C(F)(F)F
[2]
Settings	mass density [kg/m3]	speed of sound [m/s]	viscosity [mPa·s]
278.15 K	802.39	1212.9	1.59
298.15 K	785.32	1143.1	1.08
318.15 K	767.84	1075.7	0.77
338.15 K	749.54	1009.4	0.56
